Results: patent US8063101B2, “Carotenoid analogs and derivatives for the prevention of platelet aggregation” (Cardax Pharmaceuticals, Inc., priority 2007, dated 2011)
Several values for one entry are separate records, joined by “and”; a condition that tells them apart may be missing. Equal entries are not always repeated.

Legend:
[1] = system: left carotid artery (LCA) thrombosis; assay: Canine thrombosis model: left carotid artery reocclusion following rt-PA fibrinolytic therapy; type: in vivo, beagle dogs; conditions: for Incidence of Re-occlusion: 0.9% NaCl group 5/7; for Platelet Count (Post rt-PA) / Time to thrombolysis: mean±SEM; for reduction in thrombus weights compared to 0.9% NaCl solution: end of protocol
Protocol: The experimental model used is a modification of that described by Hong, et al., (Thromb Res 117: 333-342, 2006), Rebello, et al., (Arterioscler Thromb Vasc Biol 18: 954-960, 1998), and Rote, et al. (Cardiovasc Res 27: 500-507, 1993). Healthy male or female purpose-bred beagle dogs (9-13 kg) were anesthetized with sodium pentobarbital (30 mg/kg, i.v.), intubated and ventilated with room air at a tidal volume of 30 ml/kg and a rate of 12 breaths per minute. The left carotid artery (LCA) was exposed by blunt dissection using care not to injure the vessel. An external adjustable stainless steel constrictor was shaped to fit each vessel and adjusted with a nylon screw (2 mm in diameter) to reduce the pulsatile flow pattern by 50% without altering the mean carotid artery blood flow rate. Vascular injury was accomplished with the application of a low anodal current to the intimal surface of the vessel via an intravascular electrode composed of a Teflon® insulated, silver-coated, copper wire. The intravascular electrode was connected to the positive pole (anode) of a dual-channel square wave generator (Grass S88 stimulator) and a Grass Constant Current Unit; model CCUIA (Grass Instrument Division, Astro-Med, Inc. West Warwick, R.I.). The cathode was attached at a remote subcutaneous site. The current (300 μA) applied to the intimal surface of the vessel was monitored continuously. The intravascular electrode and mechanical constrictor were upstream with respect to the flow probe. Blood flow in the carotid artery was quantified using a graded patency scoring system of 0-3 as described previously (16), in which a score of 0 represents no flow (total occlusion), 1-2 represents varying degrees of reduced and cyclic patterns of flow and 3 represents non-oscillatory or uninterrupted blood flow.
FIG. 8 illustrates the experimental protocol. Twenty-eight dogs were randomized between four treatment groups receiving either DDA (10, 30 or 50 mg/kg i.v. n=7 per group) or 0.9% NaCl (n=7). Experimental thrombosis of the left carotid artery (LCA) was induced to achieve total occlusion of blood flow. Thirty minutes later, the animals received an intravenous infusion of DDA or an equivalent volume of 0.9% NaCl solution for thirty minutes (flow rate depended on dose of DDA). The drug treatment was followed by intra-carotid administration of rtPA (0.54 μg/kg bolus+3.26 μg/kg/h infusion) delivered immediately proximal to the occlusive thrombus. The infusion of rtPA was discontinued 10 min after establishing 20% of the original flow. The end-point determinations consisted of: (1) time to thrombolysis, (2) incidence of LCA reocclusion (secondary thrombosis), (3) vessel patency scores assessed by dynamic flow recordings, and (4) thrombus weight.
The data are expressed as mean±SEM and were analyzed by one-way analysis of variance for group comparisons followed by a Dunnett's post hoc t-test to determine the level of significance. The incidence of carotid artery reocclusion was compared between the groups by chi-square test. The change over time in the vessel blood flow patency score was compared between two groups by two-way analysis of variance followed by Bonferroni post-tests to determine the level of significance. Values are considered statistically different at p<0.05.

Tongue bleeding time = type: in vivo, beagle dogs; conditions: DDA 10, 30 or 50 mg/kg followed by rt-PA
Protocol: Tongue bleeding time (BT) was determined with the use of a SurgiCut™ (International Technidyne Corp, Edison, N.J.) device that makes a uniform incision 5 mm long and 1 mm deep on the upper surface of the tongue. The tongue lesion was blotted with filter paper every 20 sec until the transfer of blood to the filter paper was no longer apparent. The interval, from the time of the tongue incision until the time that blood was no longer transferred to the filter paper, was recorded as the tongue bleeding time.

[2] = Hemodynamic variables during canine thrombosis protocol; type: in vivo, beagle dogs
Aqueous dispersibility = type: physicochemical; conditions: sterile-filtered deionized water
Description: In some embodiments, highly water-dispersible C40 carotenoid derivatives may include natural source RRR-lutein (β,ε-carotene-3,3′-diol) derivatives. Derivatives may be synthesized by esterification with inorganic phosphate and succinic acid, respectively, and subsequently converted to the sodium salts. Deep orange, evenly colored aqueous suspensions were obtained after addition of these derivatives to USP-purified water. […] Aqueous suspensions may be obtained without the addition of heat, detergents, co-solvents, or other additives.
Disodium disuccinate astaxanthin (DDA; see FIG. 1B) was synthesized from commercially available crystalline astaxanthin (Buckton Scott, India) as previously described in Frey, et al. (“The efficient synthesis of disodium disuccinate astaxanthin (Cardax).” Org Process Res Dev 8: 796-801, 2004.). The final product purity was 97% (as area under the curve) by HPLC analysis. DDA was dissolved directly in sterile-filtered deionized water. The maximum aqueous dispersibility of DDA is approximately 10 mM, or 8.64 mg/ml. Vehicle consisted of isotonic sterile 0.9% NaCl solution.

[3] = DDA 10 mg/kg i.v. followed by rt-PA
[4] = DDA 30 mg/kg i.v. followed by rt-PA
[5] = DDA 50 mg/kg i.v. followed by rt-PA

CC1=C(/C=C/C(C)=C/C=C/C(C)=C/C=C/C=C(C)/C=C/C=C(C)/C=C/C2=C(C)C(=O)C(OC(=O)CCC(=O)O)CC2(C)C)C(C)(C)CC(OC(=O)CCC(=O)O)C1=O (stereo not shown) [DDA, Disodium disuccinate astaxanthin]
Incidence of Re-occlusion [1, 3]: 6/7 | Platelet Count (Post rt-PA) [1, 3]: 352 ± 37 | Time to thrombolysis [1, 3]: 20.3 ± 6.7 min | arterial patency score (0-3) ([1]; DDA 10 mg/kg, 0-30 min after rt-PA): 1.4 ± 0.2 | arterial patency score (0-3) ([1]; DDA 10 mg/kg, 30-60 min after rt-PA): 1.3 ± 0.4 | arterial patency score (0-3) ([1]; DDA 10 mg/kg, 60-90 min after rt-PA): 1.1 ± 0.3 | arterial patency score (0-3) ([1]; DDA 10 mg/kg, 90-120 min after rt-PA): 1.1 ± 0.4 | arterial patency score (0-3) ([1]; DDA 10 mg/kg, 120-150 min after rt-PA): 0.4 ± 0.4 | arterial patency score (0-3) ([1]; DDA 10 mg/kg, 150-180 min after rt-PA): 0.4 ± 0.4 | Incidence of Re-occlusion [1, 4]: 3/7 | Platelet Count (Post rt-PA) [1, 4]: 316 ± 32 | Time to thrombolysis [1, 4]: 20.6 ± 7.9 min | reduction in thrombus weights compared to 0.9% NaCl solution ([1]; DDA 30 mg/kg i.v.): 43±4% | arterial patency score (0-3) ([1]; DDA 30 mg/kg, 0-30 min after rt-PA): 1.3 ± 0.2 | arterial patency score (0-3) ([1]; DDA 30 mg/kg, 30-60 min after rt-PA): 1.3 ± 0.4 | arterial patency score (0-3) ([1]; DDA 30 mg/kg, 60-90 min after rt-PA): 1.0 ± 0.4 | arterial patency score (0-3) ([1]; DDA 30 mg/kg, 90-120 min after rt-PA): 1.6 ± 0.5 | arterial patency score (0-3) ([1]; DDA 30 mg/kg, 120-150 min after rt-PA): 1.1 ± 0.5 | arterial patency score (0-3) ([1]; DDA 30 mg/kg, 150-180 min after rt-PA): 1.4 ± 0.5 | Incidence of Re-occlusion [1, 5]: 1/7 | Platelet Count (Post rt-PA) [1, 5]: 363 ± 66 | Time to thrombolysis [1, 5]: 24.0 ± 6.0 min | reduction in thrombus weights compared to 0.9% NaCl solution ([1]; DDA 50 mg/kg i.v.): 42±5% | arterial patency score (0-3) ([1]; DDA 50 mg/kg, 0-30 min after rt-PA): 1.9 ± 0.3 | arterial patency score (0-3) ([1]; DDA 50 mg/kg, 30-60 min after rt-PA): 2.4 ± 0.3 | arterial patency score (0-3) ([1]; DDA 50 mg/kg, 60-90 min after rt-PA): 2.3 ± 0.4 | arterial patency score (0-3) ([1]; DDA 50 mg/kg, 90-120 min after rt-PA): 2.3 ± 0.5 | arterial patency score (0-3) ([1]; DDA 50 mg/kg, 120-150 min after rt-PA): 2.3 ± 0.4 | arterial patency score (0-3) ([1]; DDA 50 mg/kg, 150-180 min after rt-PA): 2.3 ± 0.5 | time to clot lysis compared with 0.9% NaCl-treated animals ([1]; DDA 10, 30 or 50 mg/kg followed by rt-PA): similar | whole blood platelet counts ([1]; dog, in vivo): unaffected | vessel patency score during the protocol ([1]; intermediate and highest doses of DDA (30 and 50 mg/kg)): progressive improvement | tongue template bleeding time, baseline vs after drug treatment (Tongue bleeding time): similar | time for blood pressure to return to original values ([2]; DDA 50 mg/kg): ≤ 30 min | transient decrease in arterial blood pressure ([2]; DDA 50 mg/kg, seen in 5 dogs): < 15% | mean arterial blood pressure and heart rate throughout the protocol ([2]; all groups (DDA 10, 30, 50 mg/kg)): did not differ significantly | maximum aqueous dispersibility (Aqueous dispersibility): approximately 10 mM and ~8.64 mg/ml
